Assay results as given in ChEMBL document CHEMBL1909046, “DrugMatrix in vitro pharmacology data”.

How the values were obtained:
[1] = DRUGMATRIX: Serotonin (5-Hydroxytryptamine) 5-HT3 radioligand binding (ligand: [3H] GR-65630); type: cell membranes, Membrane; details: hek293, Not Active = under 50% inhibition at 10 µM
Vasopressin V1a receptor = Vasopressin V1a receptor (Homo sapiens, UniProt P37288); type: cell membranes, Membrane; details: hek293; also: in other assays of this panel Not Active means under 50% inhibition at 10 µM
[2] = DRUGMATRIX: Glutamate, AMPA radioligand binding (ligand: [3H] AMPA); type: cell membranes, Rattus norvegicus, Wistar, Cerebral cortex, Membrane; details: Not Active = under 50% inhibition at 10 µM
[3] = molecular target: Matrix metalloproteinase-9 (Homo sapiens, UniProt P14780); experiment: biochemical; type: cell-based;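 also: inhibition of isolated MMP-9 enzyme activity toward a synthetic peptide substrate, from the DrugMatrix protease screening panel; in other assays of this panel Not Active means under 50% inhibition at 10 µM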
[4] = molecular target: Sodium-dependent noradrenaline transporter (Homo sapiens, UniProt P23975); experiment: DRUGMATRIX: Norepinephrine Transporter radioligand binding (ligand: [125I] RTI-55); type: cell membranes, MDCK, Membrane; details: Not Active = under 50% inhibition at 10 µM
[5] = molecular target: T1, Type-2 angiotensin II receptor (Homo sapiens, UniProt P50052); type: cell-based; details: cho-k1; also: in other assays of this panel Not Active means under 50% inhibition at 10 µM
T1 sequence (P50052 whole entry): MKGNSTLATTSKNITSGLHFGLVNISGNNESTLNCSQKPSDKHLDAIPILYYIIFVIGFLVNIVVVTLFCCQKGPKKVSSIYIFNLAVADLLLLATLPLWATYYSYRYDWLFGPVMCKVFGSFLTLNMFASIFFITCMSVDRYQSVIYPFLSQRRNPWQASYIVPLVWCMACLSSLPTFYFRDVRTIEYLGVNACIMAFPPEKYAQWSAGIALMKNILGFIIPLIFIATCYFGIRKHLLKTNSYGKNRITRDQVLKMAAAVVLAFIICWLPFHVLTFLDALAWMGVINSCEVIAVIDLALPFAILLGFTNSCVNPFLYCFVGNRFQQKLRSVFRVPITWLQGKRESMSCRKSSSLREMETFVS

[6] = DRUGMATRIX: beta-Lactamase enzyme inhibition (substrate: Nitrocefin); design: species or system Bacillus cereus; details: Not Active = under 50% inhibition at 10 µM

Sequence of Vasopressin V1a receptor (P37288 whole entry): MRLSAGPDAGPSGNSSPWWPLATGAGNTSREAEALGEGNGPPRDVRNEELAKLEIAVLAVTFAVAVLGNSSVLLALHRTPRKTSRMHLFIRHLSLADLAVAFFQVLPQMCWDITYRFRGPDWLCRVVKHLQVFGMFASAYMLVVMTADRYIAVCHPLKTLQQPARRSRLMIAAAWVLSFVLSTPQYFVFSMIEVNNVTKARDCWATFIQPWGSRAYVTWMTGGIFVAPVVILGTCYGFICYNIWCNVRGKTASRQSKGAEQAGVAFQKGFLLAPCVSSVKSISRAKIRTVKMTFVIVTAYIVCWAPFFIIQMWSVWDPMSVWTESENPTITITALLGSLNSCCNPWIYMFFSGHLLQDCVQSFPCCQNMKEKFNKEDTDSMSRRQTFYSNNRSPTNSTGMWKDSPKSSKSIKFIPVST
Sequence of Matrix metalloproteinase-9 (P14780 whole entry): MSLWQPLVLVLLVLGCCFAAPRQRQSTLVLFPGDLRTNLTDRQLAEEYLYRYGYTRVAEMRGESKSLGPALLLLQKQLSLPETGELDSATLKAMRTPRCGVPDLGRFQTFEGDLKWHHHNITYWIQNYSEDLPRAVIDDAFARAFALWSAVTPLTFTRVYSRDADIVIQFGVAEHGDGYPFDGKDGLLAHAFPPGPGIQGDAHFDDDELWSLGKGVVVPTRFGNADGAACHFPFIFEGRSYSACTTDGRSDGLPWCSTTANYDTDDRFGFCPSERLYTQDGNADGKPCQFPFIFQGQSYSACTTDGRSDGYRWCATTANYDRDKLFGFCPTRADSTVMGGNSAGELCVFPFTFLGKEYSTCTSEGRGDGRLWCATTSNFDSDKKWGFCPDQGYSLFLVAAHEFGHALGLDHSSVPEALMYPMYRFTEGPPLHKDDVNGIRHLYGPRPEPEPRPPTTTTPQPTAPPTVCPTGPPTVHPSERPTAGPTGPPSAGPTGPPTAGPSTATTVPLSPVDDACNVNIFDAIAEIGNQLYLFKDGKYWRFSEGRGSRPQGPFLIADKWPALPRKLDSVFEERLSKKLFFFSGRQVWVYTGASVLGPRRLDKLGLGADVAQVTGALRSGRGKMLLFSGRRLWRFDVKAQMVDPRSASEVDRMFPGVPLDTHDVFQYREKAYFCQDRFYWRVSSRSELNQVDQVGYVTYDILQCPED
Sequence of Sodium-dependent noradrenaline transporter (P23975 whole entry): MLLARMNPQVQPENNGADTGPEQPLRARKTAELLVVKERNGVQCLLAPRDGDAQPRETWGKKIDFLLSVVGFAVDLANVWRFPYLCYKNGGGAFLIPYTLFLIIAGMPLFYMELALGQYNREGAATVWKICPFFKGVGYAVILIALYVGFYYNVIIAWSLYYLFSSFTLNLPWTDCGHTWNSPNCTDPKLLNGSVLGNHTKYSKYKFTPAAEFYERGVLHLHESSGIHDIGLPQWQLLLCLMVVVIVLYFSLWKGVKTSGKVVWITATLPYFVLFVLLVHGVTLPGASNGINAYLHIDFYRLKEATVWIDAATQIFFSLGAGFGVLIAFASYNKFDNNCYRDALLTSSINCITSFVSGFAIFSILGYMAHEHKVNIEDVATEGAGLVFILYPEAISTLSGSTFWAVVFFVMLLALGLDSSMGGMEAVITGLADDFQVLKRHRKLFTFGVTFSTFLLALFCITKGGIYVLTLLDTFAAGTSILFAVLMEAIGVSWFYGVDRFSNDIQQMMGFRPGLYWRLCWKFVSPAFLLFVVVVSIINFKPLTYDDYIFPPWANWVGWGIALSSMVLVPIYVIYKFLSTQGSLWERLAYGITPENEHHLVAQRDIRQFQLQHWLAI

Structure (SMILES)	IC50 [1]	Ki [1]	IC50 (Vasopressin V1a receptor)	IC50 [2]	Ki [2]	IC50 [3]	IC50 ([4]; mdck)	IC50 [5]	IC50 [6]	Ki [6]	IC50 ([4]; read-out: IC50) [µM]	Ki ([4]; read-out: Ki) [µM]	IC50 ([1]; read-out: IC50) [µM]	Ki ([1]; read-out: Ki) [µM]
Cc1ncc([N+](=O)[O-])n1CCO [METRONIDAZOLE]	Not Active	Not Active	Not Active	Not Active	Not Active	Not Active	Not Active	Not Active	Not Active	Not Active				
CC(C)(C(=O)c1cccnc1)c1cccnc1 [METYRAPONE]	Not Active	Not Active	Not Active	Not Active	Not Active	Not Active	Not Active	Not Active	Not Active	Not Active				
Oc1ccc(OCc2ccccc2)cc1 [MONOBENZONE]	Not Active	Not Active	Not Active	Not Active	Not Active	Not Active		Not Active	Not Active	Not Active	3.89	3.85		
CC(C)(Oc1ccc(C2CCCc3ccccc32)cc1)C(=O)O (stereo unspecified) [NAFENOPIN]	Not Active	Not Active	Not Active	Not Active	Not Active	Not Active	Not Active	Not Active	Not Active	Not Active				
COc1ccc2cc([C@H](C)C(=O)O)ccc2c1 [NAPROXEN]	Not Active	Not Active	Not Active	Not Active	Not Active	Not Active	Not Active	Not Active	Not Active	Not Active				
CC(C)[C@H]1CC[C@H](C(=O)N[C@H](Cc2ccccc2)C(=O)O)CC1 [NATEGLINIDE]	Not Active	Not Active	Not Active	Not Active	Not Active	Not Active	Not Active	Not Active	Not Active	Not Active				
CCN[C@@H]1C[C@H](N)[C@@H](O[C@H]2OC(CN)=CC[C@H]2N)[C@H](O)[C@H]1O[C@H]1OC[C@](C)(O)[C@H](NC)[C@H]1O [NETILMICIN]	Not Active	Not Active	Not Active	Not Active	Not Active	Not Active	Not Active	Not Active	Not Active	Not Active				
COC(=O)C1=C(C)NC(C)=C(C(=O)OCC(C)C)C1c1ccccc1[N+](=O)[O-] (stereo unspecified) [NISOLDIPINE]	Not Active	Not Active	Not Active	Not Active	Not Active	Not Active	Not Active	Not Active	Not Active	Not Active				
CCOC(=O)C1=C(C)NC(C)=C(C(=O)OC)C1c1cccc([N+](=O)[O-])c1 (stereo unspecified) [NITRENDIPINE]	Not Active	Not Active	Not Active	Not Active	Not Active	Not Active	Not Active	Not Active	Not Active	Not Active				
C#C[C@]1(OC(C)=O)CC[C@H]2[C@@H]3CCC4=CC(=O)CC[C@@H]4[C@H]3CC[C@@]21C [NORETHINDRONE ACETATE]	Not Active	Not Active	Not Active	Not Active	Not Active	Not Active	Not Active	Not Active	Not Active	Not Active				
COc1ccc2[nH]c([S+]([O-])Cc3ncc(C)c(OC)c3C)nc2c1 (stereo unspecified) [OMEPRAZOLE]	Not Active	Not Active	Not Active	Not Active	Not Active	Not Active	Not Active	Not Active	Not Active	Not Active				
Cc1nccn1CC1CCc2c(c3ccccc3n2C)C1=O (stereo unspecified) [ONDANSETRON]			Not Active	Not Active	Not Active	Not Active	Not Active	Not Active	Not Active	Not Active			0.00929	0.00209
CCn1cc(C(=O)O)c(=O)c2cc(F)c(N3CCN(C)CC3)cc21 [PEFLOXACIN]	Not Active	Not Active	Not Active	Not Active	Not Active	Not Active	Not Active	Not Active	Not Active	Not Active				
